Experimental data: ChEMBL document CHEMBL1201862, “PubChem BioAssay data set” (2004)
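Interpolation was linear, between the two tested concentrations surrounding the appropriate level; five concentrations were tested over 48 hours in 96-well plates. GI50 marks 50% less growth.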 Active and inactive are the calls of the source. No stated cut-off is given here; in the data, active = GI50 up to about 1.1 µM and inactive = higher.

Columns and labels:
Assay in all cases: DTP human tumour cell line panel, 48 h
A498 = tested on: A498
CCRF-CEM = tested on: CCRF-CEM
HCT-15 = tested on: HCT-15
HL-60 = tested on: HL-60
HOP-62 = tested on: HOP-62
HOP-92 = tested on: HOP-92
LOX IMVI = tested on: LOX IMVI
MCF7 = tested on: MCF7
MOLT-4 = tested on: MOLT-4
Malme-3M = tested on: Malme-3M
NCI-H226 = tested on: NCI-H226
NCI-H23 = tested on: NCI-H23
NCI-H522 = tested on: NCI-H522
OVCAR-3 = tested on: OVCAR-3
OVCAR-4 = tested on: OVCAR-4
OVCAR-8 = tested on: OVCAR-8
SF-539 = tested on: SF-539
SK-MEL-5 = tested on: SK-MEL-5
SNB-19 = tested on: SNB-19
UACC-257 = tested on: UACC-257

Row | SMILES | GI50 (A498) | GI50 (CCRF-CEM) | GI50 (HCT-15) | GI50 (HL-60) | GI50 (HOP-62) | GI50 (HOP-92) | GI50 (LOX IMVI) | GI50 (MCF7) | GI50 (MOLT-4) | GI50 (Malme-3M) | GI50 (NCI-H226) | GI50 (NCI-H23) | GI50 (NCI-H522) | GI50 (OVCAR-3) | GI50 (OVCAR-4) | GI50 (OVCAR-8) | GI50 (SF-539) | GI50 (SK-MEL-5) | GI50 (SNB-19) | GI50 (UACC-257)
1 | O=C(O)CCC(NC(=O)c1ccc(Nc2cnc3cc(C(F)(F)F)ccc3n2)cc1)C(=O)O (stereo not given) | > 100 µM (inactive) | > 100 µM (inactive) | > 100 µM | > 100 µM (inactive) | > 100 µM (inactive) | > 100 µM (inactive) | > 100 µM (inactive) | > 100 µM (inactive) | > 100 µM (inactive) | > 100 µM (inactive) | > 100 µM (inactive) | > 100 µM (inactive) | > 100 µM (inactive) | > 100 µM (inactive) | > 100 µM (inactive) | > 100 µM (inactive) | > 100 µM (inactive) | > 100 µM (inactive) | > 81.5 µM (inactive) | > 100 µM (inactive)
2 | CC12CCC3C(CCC4(O)C=CCCC34C=O)C1(O)CC(O)C2c1ccc(=O)oc1 (stereo not given) | 0.054 µM (active) | 0.0526 µM (active) | 0.0658 µM | 0.0665 µM (active) | 0.0556 µM (active) | 0.105 µM (active) | 0.0662 µM (active) | 0.0773 µM (active) | < 0.05 µM (active) | 0.0521 µM (active) | 0.148 µM (active) | 0.0512 µM (active) | < 0.05 µM (active) | 0.0625 µM (active) | 0.0611 µM (active) | 0.0682 µM (active) | < 0.05 µM (active) | 0.0565 µM (active) | 0.127 µM (active) | 0.104 µM (active)
3 | O=[N+]([O-])c1ccc(Nc2cccc3c4cc[nH]c(-c5ccccc5)c-4nc23)c([N+](=O)[O-])c1 | > 100 µM (inactive) | 41.4 µM (inactive) | > 100 µM | > 100 µM (inactive) | > 100 µM (inactive) | > 100 µM (inactive) | > 100 µM (inactive) | 54.2 µM (inactive) | 5.82 µM (inactive) | > 100 µM (inactive) | > 100 µM (inactive) | > 100 µM (inactive) | > 100 µM (inactive) | > 100 µM (inactive) | > 100 µM (inactive) | > 100 µM (inactive) | > 100 µM (inactive) | > 100 µM (inactive) | > 100 µM (inactive) | > 100 µM (inactive)
4 | CC(C)=CCc1c(O)ccc2c1OC1c3ccc(O)c(CC=C(C)C)c3OCC21 (stereo not given) | 11.9 µM (inactive) | 6.62 µM (inactive) | 3.96 µM | 4.32 µM (inactive) | 9.84 µM (inactive) | > 100 µM (inactive) | 6.81 µM (inactive) | 8.89 µM (inactive) | 3.14 µM (inactive) | 17 µM (inactive) | 14 µM (inactive) | > 38.8 µM (inactive) | 11.3 µM (inactive) | 13.6 µM (inactive) | 11.2 µM (inactive) | 8.22 µM (inactive) | 10.5 µM (inactive) | 5.98 µM (inactive) | 13.6 µM (inactive) | 13.8 µM (inactive)
5 | COc1cc(CCN(C)C)cc(OC)c1OC | > 100 µM (inactive) | > 100 µM (inactive) | > 100 µM | > 100 µM (inactive) | > 100 µM (inactive) | > 100 µM (inactive) | > 100 µM (inactive) | > 100 µM (inactive) | > 100 µM (inactive) |  | > 100 µM (inactive) | > 100 µM (inactive) | > 100 µM (inactive) | > 100 µM (inactive) | > 100 µM (inactive) | > 100 µM (inactive) | > 100 µM (inactive) | > 100 µM (inactive) | > 100 µM (inactive) | > 100 µM (inactive)
6 | CCOC(=O)C(C)NC(=O)N(C)C12CC3CC(CC(C3)C1)C2 (stereo not given) | 116 µM (inactive) | 138 µM (inactive) | 187 µM | > 96.8 µM (inactive) | 316 µM (inactive) | 20.7 µM (inactive) | 116 µM (inactive) | 139 µM (inactive) | 63.2 µM (inactive) | 194 µM (inactive) | 233 µM (inactive) | 185 µM (inactive) | 135 µM (inactive) | 149 µM (inactive) | 175 µM (inactive) | 265 µM (inactive) | 344 µM (inactive) | 111 µM (inactive) | 412 µM (inactive) | 133 µM (inactive)
7 | Cc1c(C2=NN=C(/N=N/c3c(O)cccc3O)/C2=C/c2ccccc2)c(=O)n(-c2ccccc2)n1C | > 100 µM (inactive) | > 100 µM (inactive) | > 100 µM | > 100 µM (inactive) | > 100 µM (inactive) | > 100 µM (inactive) | > 100 µM (inactive) | > 100 µM (inactive) | > 100 µM (inactive) | > 100 µM (inactive) | > 100 µM (inactive) | > 100 µM (inactive) | > 100 µM (inactive) | > 100 µM (inactive) | > 100 µM (inactive) | > 100 µM (inactive) | > 100 µM (inactive) | > 100 µM (inactive) | > 100 µM (inactive) | > 100 µM (inactive)
8 | CN(C)CCNc1c([N+](=O)[O-])cc2c3c(cccc13)C(=O)N(CCN(C)C)C2=O | 1.67 µM (inactive) | 0.893 µM (active) | 1.7 µM | 1.68 µM (inactive) | 2.03 µM (inactive) | 0.587 µM (active) | 1.08 µM (active) | 1.22 µM (inactive) | 0.476 µM (active) | 0.635 µM (active) | > 100 µM (inactive) | 1.78 µM (inactive) | 1.25 µM (inactive) | 1.79 µM (inactive) | 0.807 µM (active) | 1.05 µM (active) | 2.16 µM (inactive) | 2.18 µM (inactive) | 1.59 µM (inactive) | 2.08 µM (inactive)
9 | CCOC(=O)C1=C(c2ccccc2)C12N(Cc1ccccc1)C(=O)C2(c1ccccc1)c1ccccc1 (stereo not given) | 36.8 µM (inactive) | 25.8 µM (inactive) | 30.8 µM | 34.9 µM (inactive) | 67 µM (inactive) | 20 µM (inactive) | 34.9 µM (inactive) | 38.6 µM (inactive) | 38.8 µM (inactive) | 93.8 µM (inactive) | 26.3 µM (inactive) | 39.1 µM (inactive) | 32.8 µM (inactive) | 33.8 µM (inactive) |  |  | 45.1 µM (inactive) |  | 96.8 µM (inactive) | 34.7 µM (inactive)
10 | CC1(CO)C(O)CCC2(C)C1CCC1CC3CC12CCC3(O)CO (stereo not given) | 7.6 µM (inactive) | 2.84 µM (inactive) | > 24.8 µM | 0.433 µM (active) | 1.04 µM (active) | 24.8 µM (inactive) | 4.72 µM (inactive) | 5.04 µM (inactive) | 5.12 µM (inactive) | > 76.2 µM (inactive) | 21.2 µM (inactive) | 4.91 µM (inactive) | > 28.2 µM (inactive) | > 88.3 µM (inactive) | > 100 µM (inactive) | 4.84 µM (inactive) | 2.9 µM (inactive) | 5.83 µM (inactive) | > 79.1 µM (inactive) | > 81.3 µM (inactive)
11 | [O-][Cl+3]([O-])([O-])O.c1ccc(C2=NN2c2ccccc2)cc1 | > 100 µM (inactive) | > 100 µM (inactive) | 7.89 µM |  | > 100 µM (inactive) | > 100 µM (inactive) | 0.451 µM (active) | 60 µM (inactive) | 3.73 µM (inactive) | 29.5 µM (inactive) | 14.3 µM (inactive) | 85.7 µM (inactive) | 35.3 µM (inactive) | 84.9 µM (inactive) | > 100 µM (inactive) | > 100 µM (inactive) | 76.2 µM (inactive) | 13.8 µM (inactive) | > 100 µM (inactive) | 59.6 µM (inactive)
